Reference: ChEMBL document CHEMBL1201862, “PubChem BioAssay data set” (2004)
Activity calls are given as the source filed them.

Experiments:
[1] = viability loss in HepG2 hepatoma cells – cell-based, ATP luminescence, cherry-pick, activator set 2, cytotoxicity control, dose response (AID 1053143); format: functional
[2] = CTGF mRNA reduction in DLD1 cells – cell-based, DLD1 colon cancer, RT-qPCR, cherry-pick, dose response (AID 1053122); format: functional; details: Cancer cell lines
[3] = biological target: Luciferin 4-monooxygenase (Photinus pyralis, UniProt P08659); assay: Counter Screen for Luciferase-based Assay Positives. [Related pubchem assays: 620, 618, 411 ]
Chain of Luciferin 4-monooxygenase (P08659 whole entry): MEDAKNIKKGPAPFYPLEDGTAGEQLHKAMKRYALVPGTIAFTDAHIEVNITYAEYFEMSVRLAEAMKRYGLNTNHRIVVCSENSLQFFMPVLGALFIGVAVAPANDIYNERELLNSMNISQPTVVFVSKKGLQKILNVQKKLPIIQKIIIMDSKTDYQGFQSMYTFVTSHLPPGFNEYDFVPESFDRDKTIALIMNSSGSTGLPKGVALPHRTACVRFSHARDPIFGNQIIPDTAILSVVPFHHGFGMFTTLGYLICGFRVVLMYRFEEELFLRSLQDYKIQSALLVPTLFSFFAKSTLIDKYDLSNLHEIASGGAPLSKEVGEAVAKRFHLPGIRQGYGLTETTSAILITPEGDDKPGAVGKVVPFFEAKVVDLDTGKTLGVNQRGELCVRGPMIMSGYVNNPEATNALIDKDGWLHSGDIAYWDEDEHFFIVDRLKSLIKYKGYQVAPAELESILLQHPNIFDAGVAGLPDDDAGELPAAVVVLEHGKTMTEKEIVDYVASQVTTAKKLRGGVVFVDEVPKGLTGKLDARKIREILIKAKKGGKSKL

[4] = viability of PTEN-deleted HCT116 cells – cell-based, HCT116 PTEN knockout, dose response (AID 1047); format: functional;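 note: HCT116 colon tumor cells with PTEN knocked out; cells exposed to compound for 60 hours before readout; potency for loss of cell viability measured by luminescence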
HT-1080 = assay: HT1080 cell viability loss – fluorescence readout (AID 620); format: functional, cell-based; details: Homo sapiens
[5] = viability of HCT116 lacking mutant beta-catenin – cell-based, human colon tumor, dose response (AID 1045); format: functional;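 note: HCT116 colon tumor cells with beta catenin knocked out; cells exposed to compound for 60 hours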
[6] = biological target: Oxysterols receptor LXR-beta (Homo sapiens, UniProt P55055); format: functional, cell-based;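 note: agonist activity at LXR measured by a cell-based luminescence readout across a dose range, run as a counterscreen for daf-12 agonists; HEK293 cells with Gal4-LXR fusion and GAL4-driven luciferase reporter; potency for activation of Gal4-LXR reporter so compounds are agonists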
Chain of Oxysterols receptor LXR-beta (P55055 whole entry, the tested form may be a part): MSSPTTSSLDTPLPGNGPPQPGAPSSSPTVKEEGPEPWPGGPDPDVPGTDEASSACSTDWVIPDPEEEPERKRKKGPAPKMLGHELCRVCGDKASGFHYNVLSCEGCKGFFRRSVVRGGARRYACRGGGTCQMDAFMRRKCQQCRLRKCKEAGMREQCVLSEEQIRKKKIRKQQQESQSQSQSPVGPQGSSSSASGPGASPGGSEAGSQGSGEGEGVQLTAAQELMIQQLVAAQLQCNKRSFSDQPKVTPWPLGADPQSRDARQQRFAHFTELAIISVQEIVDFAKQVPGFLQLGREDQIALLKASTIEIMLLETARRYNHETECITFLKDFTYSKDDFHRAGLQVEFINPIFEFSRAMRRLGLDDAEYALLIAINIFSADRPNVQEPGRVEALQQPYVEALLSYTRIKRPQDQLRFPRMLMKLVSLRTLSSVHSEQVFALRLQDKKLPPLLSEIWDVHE

[7] = cervical cancer cell viability loss – HeLa, 24 h, plate reader, powder samples, set 3, cytotoxicity control, dose response (AID 651864); format: functional, cell-based
[8] = HEK-293T cell viability reduction – luminescence, B-cell screen hits, cytotoxicity control for BCR NF-kB inhibitor project, dose response (AID 489021); format: functional, cell-based;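 note: HEK-293T cells carrying an NF-kB luciferase reporter; cells exposed to compound for about 14 hours before viability readout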
[9] = biological target: 26S proteasome non-ATPase regulatory subunit 14 (Homo sapiens, UniProt O00487); assay: inhibition of proteasome subunit RPN11 – biochemical, fluorescence polarization, uHTS hits, confirmation (AID 602368); format: functional
Chain of 26S proteasome non-ATPase regulatory subunit 14 (O00487 whole entry): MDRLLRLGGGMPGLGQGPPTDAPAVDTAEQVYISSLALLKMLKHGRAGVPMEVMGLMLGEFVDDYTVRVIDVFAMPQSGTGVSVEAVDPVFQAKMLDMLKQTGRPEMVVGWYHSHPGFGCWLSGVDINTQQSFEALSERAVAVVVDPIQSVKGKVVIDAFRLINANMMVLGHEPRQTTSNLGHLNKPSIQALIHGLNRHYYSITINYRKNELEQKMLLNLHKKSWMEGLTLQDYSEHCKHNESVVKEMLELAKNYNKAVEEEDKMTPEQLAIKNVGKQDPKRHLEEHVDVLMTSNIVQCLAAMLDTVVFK

[10] = biological target: 72 kDa type IV collagenase (Homo sapiens, UniProt P08253); assay: Dose Response validation of uHTS RPN11 inhibitor hits using a MMP-2 Fluorescence assay.; format: functional
Chain of 72 kDa type IV collagenase (P08253 whole entry): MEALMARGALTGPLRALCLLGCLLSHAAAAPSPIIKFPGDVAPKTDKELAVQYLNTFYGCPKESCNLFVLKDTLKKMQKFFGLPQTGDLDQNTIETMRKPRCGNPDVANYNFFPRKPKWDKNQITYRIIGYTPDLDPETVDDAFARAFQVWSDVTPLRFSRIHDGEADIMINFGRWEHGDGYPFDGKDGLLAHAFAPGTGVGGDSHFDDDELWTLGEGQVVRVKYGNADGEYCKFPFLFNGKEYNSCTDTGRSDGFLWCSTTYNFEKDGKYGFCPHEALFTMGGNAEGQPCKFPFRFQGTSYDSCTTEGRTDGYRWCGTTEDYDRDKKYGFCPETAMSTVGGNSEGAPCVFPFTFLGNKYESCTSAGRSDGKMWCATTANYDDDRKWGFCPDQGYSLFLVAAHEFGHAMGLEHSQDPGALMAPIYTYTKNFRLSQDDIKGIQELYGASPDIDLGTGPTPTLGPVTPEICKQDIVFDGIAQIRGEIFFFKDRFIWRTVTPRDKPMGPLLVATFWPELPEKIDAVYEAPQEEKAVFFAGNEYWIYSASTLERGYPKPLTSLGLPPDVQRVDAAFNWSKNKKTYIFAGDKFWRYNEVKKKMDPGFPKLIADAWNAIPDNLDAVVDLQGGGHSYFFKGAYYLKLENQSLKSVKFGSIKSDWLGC

Prothrombin = Prothrombin (Bos taurus, UniProt P00735); assay: thrombin protease inhibitors – biochemical, fluorescence polarization, uHTS hits, dose response (AID 602369); format: functional
Albumin = Albumin (Bos taurus, UniProt P02769); assay: Counterscreen for inhibitors of T-cell receptor (TCR)-CD3 interaction: Fluorescence-based biochemical high throughput dose response assay to identify inhibitors of T-cell receptor (TCR)-CD3 interaction using a TAMRA-labeled BSA probe.; format: functional
Chain of Albumin (P02769 whole entry): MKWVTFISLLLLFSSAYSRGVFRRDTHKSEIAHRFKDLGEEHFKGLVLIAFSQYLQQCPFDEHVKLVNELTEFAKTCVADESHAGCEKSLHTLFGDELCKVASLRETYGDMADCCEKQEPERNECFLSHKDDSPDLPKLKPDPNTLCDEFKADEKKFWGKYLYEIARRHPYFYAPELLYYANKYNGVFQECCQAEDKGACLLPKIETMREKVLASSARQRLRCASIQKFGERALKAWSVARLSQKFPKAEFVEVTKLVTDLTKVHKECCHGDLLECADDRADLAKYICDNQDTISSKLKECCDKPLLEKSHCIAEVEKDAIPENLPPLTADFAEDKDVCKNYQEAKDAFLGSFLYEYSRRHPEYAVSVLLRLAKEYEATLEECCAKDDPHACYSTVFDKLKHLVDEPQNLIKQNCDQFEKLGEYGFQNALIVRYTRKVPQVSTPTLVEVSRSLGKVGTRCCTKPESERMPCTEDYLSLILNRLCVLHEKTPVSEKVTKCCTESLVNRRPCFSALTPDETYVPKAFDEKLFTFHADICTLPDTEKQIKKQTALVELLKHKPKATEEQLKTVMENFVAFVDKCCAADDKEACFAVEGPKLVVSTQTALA

[11] = biological target: T1, Microphthalmia-associated transcription factor (Homo sapiens, UniProt O75030); assay: reducers of TRPM1 reporter luminescence, concentration series – cell-based, SK-MEL-5, cherry-picked, set 3, MITF inhibitor project, dose response (AID 493073); format: functional;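 note: SK-MEL-5 melanoma cells with luciferase driven by the MITF target TRPM1 promoter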
T1 sequence (O75030 whole entry): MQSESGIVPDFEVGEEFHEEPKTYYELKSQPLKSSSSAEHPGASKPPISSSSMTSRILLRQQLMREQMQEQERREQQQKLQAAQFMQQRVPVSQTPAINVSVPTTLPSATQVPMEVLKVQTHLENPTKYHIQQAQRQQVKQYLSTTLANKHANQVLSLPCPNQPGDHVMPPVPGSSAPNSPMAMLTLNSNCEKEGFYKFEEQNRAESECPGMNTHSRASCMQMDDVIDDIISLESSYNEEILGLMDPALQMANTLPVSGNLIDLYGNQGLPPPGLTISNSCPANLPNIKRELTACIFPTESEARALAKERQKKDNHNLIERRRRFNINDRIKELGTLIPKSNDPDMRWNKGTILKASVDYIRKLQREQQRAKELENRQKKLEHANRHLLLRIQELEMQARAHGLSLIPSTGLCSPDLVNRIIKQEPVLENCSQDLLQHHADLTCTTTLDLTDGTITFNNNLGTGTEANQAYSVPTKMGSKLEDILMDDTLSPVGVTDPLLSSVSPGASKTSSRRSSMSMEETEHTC

[12] = biological target: Matrix metalloproteinase-14 (Homo sapiens, UniProt P50281); assay: Dose Response confirmation of uHTS hits for a small molecule inhibitors of MT1-MMP activation in a fluorescence assay set 1.; format: functional
Cytochrome P450 3A4 = Cytochrome P450 3A4 (Homo sapiens, UniProt P08684);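 note: CYP3A4 tested as one member of a cytochrome P450 panel screen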
Chain of Cytochrome P450 3A4 (P08684 whole entry): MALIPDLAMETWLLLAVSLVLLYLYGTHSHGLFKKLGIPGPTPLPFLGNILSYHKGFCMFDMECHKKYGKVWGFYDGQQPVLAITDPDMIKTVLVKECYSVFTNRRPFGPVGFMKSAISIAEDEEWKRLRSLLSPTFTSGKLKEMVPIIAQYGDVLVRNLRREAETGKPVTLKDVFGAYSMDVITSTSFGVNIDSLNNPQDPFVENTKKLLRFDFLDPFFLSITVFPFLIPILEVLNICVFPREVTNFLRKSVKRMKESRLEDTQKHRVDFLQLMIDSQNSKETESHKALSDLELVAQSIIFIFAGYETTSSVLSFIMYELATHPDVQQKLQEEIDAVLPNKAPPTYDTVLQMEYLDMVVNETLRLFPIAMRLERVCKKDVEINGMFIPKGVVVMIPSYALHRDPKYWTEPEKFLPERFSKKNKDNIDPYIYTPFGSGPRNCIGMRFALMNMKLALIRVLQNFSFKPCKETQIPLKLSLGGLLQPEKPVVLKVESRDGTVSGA

[13] = A Cell-Based Confirmatory Screen for Compounds that Inhibit VEEV, TC-83 (5).; format: functional
[14] = A Cell-Based Confirmatory Screen for Compounds that Inhibit VEEV TC-83 (4).; format: functional
[15] = inhibitors of non-replicating M. tuberculosis, dose response, luciferase, dry powder (AID 651619); format: functional; details: Mycobacterium tuberculosis
[16] = inhibitors of non-replicating M. tuberculosis, dose response, luciferase, dry powder (AID 651620); format: functional; details: Mycobacterium tuberculosis
[17] = growth inhibition of replicating M. tuberculosis, dose response, counter-screen, dry powder, IC90 (AID 651617); format: functional; details: Mycobacterium tuberculosis
[18] = biological target: COUP transcription factor 2 (Homo sapiens, UniProt P24468); assay: Luminescence-based cell-based high throughput dose response assay to identify inhibitors of COUP-TFII (NR2F2).; format: functional;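 note: HEK293 cells transiently cotransfected with COUP-TFII expression vector and reporter; luciferase reporter luminescence driven by COUP-TFII from the pX2-168 reporter plasmid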
Chain of COUP transcription factor 2 (P24468 whole entry): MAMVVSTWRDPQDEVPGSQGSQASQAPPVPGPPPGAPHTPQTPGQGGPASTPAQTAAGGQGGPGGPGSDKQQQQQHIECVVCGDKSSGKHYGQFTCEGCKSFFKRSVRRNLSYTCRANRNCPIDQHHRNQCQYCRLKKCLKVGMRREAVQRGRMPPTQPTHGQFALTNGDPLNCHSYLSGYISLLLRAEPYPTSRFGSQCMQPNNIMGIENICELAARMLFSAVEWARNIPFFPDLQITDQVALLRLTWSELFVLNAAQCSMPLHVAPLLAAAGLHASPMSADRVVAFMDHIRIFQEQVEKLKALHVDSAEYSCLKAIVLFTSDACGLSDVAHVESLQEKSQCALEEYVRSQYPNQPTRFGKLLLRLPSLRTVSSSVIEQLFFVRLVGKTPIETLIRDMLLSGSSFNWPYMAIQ

[19] = intracellular Trypanosoma cruzi inhibitors in host cells – cell-based, plate reader, cherry-pick samples, set 3, dose response (AID 651818); format: functional;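 note: compounds incubated with infected cells for about four days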
[20] = T. cruzi growth inhibition in host cells, dose response, cell-based, plate reader, dry powder, set 2 (AID 652275); format: functional
[21] = anti-trypanosomal activity in BESM host cells – imaging, CA-I/72 strain, bovine embryo skeletal muscle, dry powder, dose response (AID 651885); format: functional, cell-based
[22] = biological target: Potassium channel subfamily K member 3 (Homo sapiens, UniProt O14649); assay: inhibition of human KCNK3 channel flux – CHO cells, FluxOR thallium flux, SAR follow-up (AID 652212); format: functional
Chain of Potassium channel subfamily K member 3 (O14649 whole entry): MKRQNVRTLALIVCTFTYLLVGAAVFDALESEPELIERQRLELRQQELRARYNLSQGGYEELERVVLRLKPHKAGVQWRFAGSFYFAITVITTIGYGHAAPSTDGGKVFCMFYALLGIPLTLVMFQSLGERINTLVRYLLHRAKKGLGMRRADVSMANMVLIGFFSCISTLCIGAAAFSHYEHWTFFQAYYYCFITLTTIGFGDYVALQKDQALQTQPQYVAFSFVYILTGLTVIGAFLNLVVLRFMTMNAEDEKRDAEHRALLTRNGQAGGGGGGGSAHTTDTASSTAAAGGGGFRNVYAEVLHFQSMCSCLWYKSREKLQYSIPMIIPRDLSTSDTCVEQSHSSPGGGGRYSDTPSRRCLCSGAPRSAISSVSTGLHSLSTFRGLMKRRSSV

[23] = biological target: Endoplasmic reticulum aminopeptidase 1 (Homo sapiens, UniProt Q9NZ08); assay: inhibition of human ERAP1 enzyme activity – biochemical, cherry-pick, set 2, plate reader, dose response (AID 743314)
Chain of Endoplasmic reticulum aminopeptidase 1 (Q9NZ08 whole entry): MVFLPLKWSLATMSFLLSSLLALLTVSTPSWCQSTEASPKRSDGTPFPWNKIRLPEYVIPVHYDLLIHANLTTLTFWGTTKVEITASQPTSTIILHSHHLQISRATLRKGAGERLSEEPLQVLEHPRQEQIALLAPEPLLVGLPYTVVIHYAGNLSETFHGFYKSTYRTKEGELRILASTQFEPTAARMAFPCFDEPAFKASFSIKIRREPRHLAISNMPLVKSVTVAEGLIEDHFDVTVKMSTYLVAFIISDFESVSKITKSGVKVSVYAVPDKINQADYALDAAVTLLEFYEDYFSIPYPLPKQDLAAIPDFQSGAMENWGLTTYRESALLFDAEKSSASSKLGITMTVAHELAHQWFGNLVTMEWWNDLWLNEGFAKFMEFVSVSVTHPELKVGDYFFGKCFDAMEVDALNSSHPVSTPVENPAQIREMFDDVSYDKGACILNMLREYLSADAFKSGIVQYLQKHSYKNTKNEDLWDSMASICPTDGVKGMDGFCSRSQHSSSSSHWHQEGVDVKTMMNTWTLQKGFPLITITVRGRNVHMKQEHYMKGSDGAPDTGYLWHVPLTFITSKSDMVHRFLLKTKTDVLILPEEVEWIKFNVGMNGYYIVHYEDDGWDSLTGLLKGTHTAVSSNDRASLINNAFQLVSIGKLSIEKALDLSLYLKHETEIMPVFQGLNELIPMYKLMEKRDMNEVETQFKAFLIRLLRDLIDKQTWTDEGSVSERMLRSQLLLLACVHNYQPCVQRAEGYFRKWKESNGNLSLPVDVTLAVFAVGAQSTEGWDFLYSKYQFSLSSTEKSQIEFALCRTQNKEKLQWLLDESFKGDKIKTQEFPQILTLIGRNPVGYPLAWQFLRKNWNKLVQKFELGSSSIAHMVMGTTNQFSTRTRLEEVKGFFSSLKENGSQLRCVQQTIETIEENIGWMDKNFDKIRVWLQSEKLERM

With c1csc(-c2ccc(N3CCOCC3)nn2)c1 the AC50 [1] was 26 µM (active).
For O=C(Cc1ccncc1)N1CCCCN2[C@@H](CO)[C@H](c3ccc(C#Cc4ccccc4F)cc3)[C@@H]2C1, the AC50 [2] was 13.1 µM (active).
With Clc1cccc(-c2nnc(-c3ccccc3)o2)c1 the EC50 [3] was 50.7 µM (active), the EC50 [4] was 49 µM (active) and the EC50 (HT-1080) was > 50 µM (not active). The EC50 [5] was 26.3 µM (active) and the EC50 [6] was > 67.5 µM (inactive).
In the case of CCn1nccc1/N=C/c1ccc(N2CCCC2)cc1, the AC50 [7] is reported as > 160 µM (inactive).
For Cc1ccc(/C=C2\SC(=S)N(CCCC(=O)NNC(=O)c3ccccc3O)C2=O)cc1, the IC50 [8] was > 80 µM (inactive), the IC50 [9] was 28.3 µM (active) and the IC50 [10] was > 100 µM (inactive). The IC50 (Prothrombin) was 32.8 µM (active) and the IC50 (Albumin) was > 94.1 µM (inactive).
In the case of CC[n+]1c(/C=C/N(C)c2ccccc2)sc2ccc(Cl)cc21, the AC50 [11] is reported as 9.07 µM (active), the IC50 [12] is reported as > 80 µM (inactive) and the AC50 (Cytochrome P450 3A4) is reported as 17.8 µM (inconclusive).
In the case of CCN1CCN(Cc2nc3ccc([N+](=O)[O-])cc3c(=O)n2-c2ccc(F)cc2)CC1, the IC50 [13] is reported as 0.99 µM (active) and the IC50 [14] is reported as 0.6 µM (active).
In the case of COc1ccc(-c2nnc(SCc3ccccn3)o2)cc1, the IC90 [15] is reported as 4 µM (active), the IC90 [16] is reported as 4 µM (active) and the IC90 [17] is reported as 62 µM (active).
In the case of c1ccc2cc3[nH]c(CNc4nc(N5CCOCC5)nc5c4ncn5-c4ccsc4)nc3cc2c1, the IC50 [18] is reported as 6.35 µM (active).
With COc1ccc(CN(C)C[C@@H]2Oc3c(NC(=O)c4ccncc4)cccc3C(=O)N([C@@H](C)CO)C[C@H]2C)cc1 the AC50 [19] was 0.388 µM (active), the AC50 [20] was 0.0382 µM (active) and the IC50 [21] was 0.18 µM (active).
In the case of Cc1cccc(C(=O)Nc2ccccc2C(=O)Nc2ccccc2)c1, the IC50 [22] is reported as 5.59 µM (active).
For Cc1cc(=O)oc2c(CN3CCCCC3)c(O)ccc12, the AC50 [23] was 5.18 µM (active).
